Columns and labels:
Assay in all cases: KinaseProfiler kinase assay
Type in all cases: biochemical
[1] = molecular target: T1, Flt3(h) (Homo sapiens, UniProt P36888)
T1 sequence (P36888 27-993): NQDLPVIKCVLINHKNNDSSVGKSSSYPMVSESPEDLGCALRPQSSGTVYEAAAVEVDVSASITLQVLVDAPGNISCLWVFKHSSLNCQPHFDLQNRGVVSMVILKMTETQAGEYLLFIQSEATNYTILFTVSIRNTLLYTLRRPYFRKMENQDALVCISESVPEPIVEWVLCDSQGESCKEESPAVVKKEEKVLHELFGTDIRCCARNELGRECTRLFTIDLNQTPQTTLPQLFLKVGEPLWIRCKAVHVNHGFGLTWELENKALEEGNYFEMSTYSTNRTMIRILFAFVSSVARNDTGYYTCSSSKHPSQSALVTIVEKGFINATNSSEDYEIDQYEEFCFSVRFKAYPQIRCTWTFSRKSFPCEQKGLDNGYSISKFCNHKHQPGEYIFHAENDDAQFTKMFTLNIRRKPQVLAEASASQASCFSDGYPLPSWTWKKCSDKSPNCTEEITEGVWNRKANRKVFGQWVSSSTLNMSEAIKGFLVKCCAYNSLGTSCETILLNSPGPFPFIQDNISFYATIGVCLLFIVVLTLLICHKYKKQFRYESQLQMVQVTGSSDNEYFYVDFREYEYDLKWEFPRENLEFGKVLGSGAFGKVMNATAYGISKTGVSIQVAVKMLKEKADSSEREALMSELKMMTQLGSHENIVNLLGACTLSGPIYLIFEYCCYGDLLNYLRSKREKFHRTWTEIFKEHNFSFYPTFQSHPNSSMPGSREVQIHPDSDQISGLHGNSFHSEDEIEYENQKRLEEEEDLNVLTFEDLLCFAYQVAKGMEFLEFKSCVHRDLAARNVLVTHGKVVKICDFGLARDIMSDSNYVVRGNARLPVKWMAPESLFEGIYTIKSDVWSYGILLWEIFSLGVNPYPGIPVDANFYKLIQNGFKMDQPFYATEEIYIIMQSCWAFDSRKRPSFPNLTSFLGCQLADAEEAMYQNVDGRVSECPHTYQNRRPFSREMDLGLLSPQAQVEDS
Experimental: (§1) This example tests the inhibitory properties of representative compounds of the invention in c-Src kinase, Aurora-A kinase, Flt3 kinase, Ret kinase and TrkA Kinase assays (see, Daniele Fancelli et al, J. Med. Chem., 2006, 49 (24), pp 7247-7251). The KinaseProfiler™ Service Assay Protocols (Millipore) was used to test the kinase inhibiting activity of novel compounds from this invention. To do this, the buffer composition was as: 20 mM MOPS, 1 mM EDTA, 0.01% Brij-35, 5% Glycerol, 0.1% β-mercaptoethanol, 1 mg/mL BSA. Test compounds were initially dissolved in DMSO at the desired concentration, then serially diluted to the kinase assay buffer. In a final reaction volume of 25 μL, Aurora-A(h) (5-10 mU) is incubated with 8 mM MOPS pH 7.0, 0.2 mM EDTA, 200 μM LRRASLG (Kemptide), 10 mM MgAcetate and [γ^33P-ATP]. The reaction was initiated by the addition of the MgATP mix. After incubation for 40 minute at room temperature, the reaction was stopped by addition of 5 μL of a 3% phosphoric acid solution. 10 μL of the reaction was then spotted onto a P30 filtermat and washed three times for 5 minutes in 50 mM phosphoric acid and once in methanol prior to drying and scintillation counting. Wells containing substrate but no kinase and wells containing a phosphopeptide control were used to set 0% and 100% phosphorylation value, respectively.
(§2) The Kinase Hotspot℠ kinase assay was also used to test the compounds for IC50 or % inhibitions (Reaction Biology Corp.). Inhibitory IC50 values were determined by titration of compound at the optimal kinase concentration (Kinase EC50).

[2] = molecular target: T2, Aurora-A(h) (Homo sapiens, UniProt O14965); settings: read-out: % Inhibition @1 μM Auroro-A
T2 sequence (O14965 1-403): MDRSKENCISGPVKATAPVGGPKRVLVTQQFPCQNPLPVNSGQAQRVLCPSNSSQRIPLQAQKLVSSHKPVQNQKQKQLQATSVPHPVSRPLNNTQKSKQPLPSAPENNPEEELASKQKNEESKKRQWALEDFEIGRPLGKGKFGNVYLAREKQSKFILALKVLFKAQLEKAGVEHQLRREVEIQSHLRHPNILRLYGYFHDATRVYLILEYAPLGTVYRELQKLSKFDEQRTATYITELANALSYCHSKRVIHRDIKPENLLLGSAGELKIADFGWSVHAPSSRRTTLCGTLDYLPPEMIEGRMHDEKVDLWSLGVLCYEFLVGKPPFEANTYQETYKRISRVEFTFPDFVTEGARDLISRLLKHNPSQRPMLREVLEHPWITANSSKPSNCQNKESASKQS
Experimental: as §1, §2

[3] = molecular target: cSRC(h) (Homo sapiens, UniProt P12931)
Experimental: as §1, §2

[4] = molecular target: Ret(h) (Homo sapiens, UniProt P07949)
Experimental: as §1, §2

[5] = molecular target: KDR(h) (Homo sapiens, UniProt P35968)
[6] = molecular target: Abl(h) (Homo sapiens, UniProt P00519)
Sequence of Abl(h) (P00519 whole entry): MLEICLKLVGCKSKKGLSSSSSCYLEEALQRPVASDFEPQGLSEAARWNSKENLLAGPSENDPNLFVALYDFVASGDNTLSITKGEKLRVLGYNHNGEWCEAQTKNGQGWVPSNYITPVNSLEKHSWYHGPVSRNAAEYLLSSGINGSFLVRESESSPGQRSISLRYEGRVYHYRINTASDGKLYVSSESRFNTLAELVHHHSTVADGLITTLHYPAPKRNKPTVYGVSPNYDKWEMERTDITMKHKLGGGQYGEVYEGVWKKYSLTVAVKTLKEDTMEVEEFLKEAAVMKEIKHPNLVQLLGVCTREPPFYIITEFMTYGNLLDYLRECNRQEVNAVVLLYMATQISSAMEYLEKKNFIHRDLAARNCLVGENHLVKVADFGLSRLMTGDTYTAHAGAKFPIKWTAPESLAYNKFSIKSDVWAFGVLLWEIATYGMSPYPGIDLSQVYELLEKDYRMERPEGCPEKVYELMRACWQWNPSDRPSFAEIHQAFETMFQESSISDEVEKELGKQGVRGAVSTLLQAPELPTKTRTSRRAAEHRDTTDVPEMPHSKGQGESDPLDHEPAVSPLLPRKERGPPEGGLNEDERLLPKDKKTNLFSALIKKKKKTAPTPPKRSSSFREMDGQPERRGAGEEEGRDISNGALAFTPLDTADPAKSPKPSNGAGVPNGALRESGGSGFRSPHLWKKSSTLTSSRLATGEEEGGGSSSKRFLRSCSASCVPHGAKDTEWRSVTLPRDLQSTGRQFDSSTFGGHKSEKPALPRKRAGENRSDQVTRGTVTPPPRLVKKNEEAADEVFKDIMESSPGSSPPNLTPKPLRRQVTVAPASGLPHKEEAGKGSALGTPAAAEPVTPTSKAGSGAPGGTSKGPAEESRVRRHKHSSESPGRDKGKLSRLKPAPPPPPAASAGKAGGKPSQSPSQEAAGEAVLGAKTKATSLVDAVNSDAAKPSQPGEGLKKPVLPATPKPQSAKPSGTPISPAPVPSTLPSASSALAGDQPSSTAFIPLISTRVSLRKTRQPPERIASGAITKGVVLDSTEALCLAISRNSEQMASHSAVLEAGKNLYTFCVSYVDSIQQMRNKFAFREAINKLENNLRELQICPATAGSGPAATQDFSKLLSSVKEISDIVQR

Sequence of KDR(h) (P35968 20-1356): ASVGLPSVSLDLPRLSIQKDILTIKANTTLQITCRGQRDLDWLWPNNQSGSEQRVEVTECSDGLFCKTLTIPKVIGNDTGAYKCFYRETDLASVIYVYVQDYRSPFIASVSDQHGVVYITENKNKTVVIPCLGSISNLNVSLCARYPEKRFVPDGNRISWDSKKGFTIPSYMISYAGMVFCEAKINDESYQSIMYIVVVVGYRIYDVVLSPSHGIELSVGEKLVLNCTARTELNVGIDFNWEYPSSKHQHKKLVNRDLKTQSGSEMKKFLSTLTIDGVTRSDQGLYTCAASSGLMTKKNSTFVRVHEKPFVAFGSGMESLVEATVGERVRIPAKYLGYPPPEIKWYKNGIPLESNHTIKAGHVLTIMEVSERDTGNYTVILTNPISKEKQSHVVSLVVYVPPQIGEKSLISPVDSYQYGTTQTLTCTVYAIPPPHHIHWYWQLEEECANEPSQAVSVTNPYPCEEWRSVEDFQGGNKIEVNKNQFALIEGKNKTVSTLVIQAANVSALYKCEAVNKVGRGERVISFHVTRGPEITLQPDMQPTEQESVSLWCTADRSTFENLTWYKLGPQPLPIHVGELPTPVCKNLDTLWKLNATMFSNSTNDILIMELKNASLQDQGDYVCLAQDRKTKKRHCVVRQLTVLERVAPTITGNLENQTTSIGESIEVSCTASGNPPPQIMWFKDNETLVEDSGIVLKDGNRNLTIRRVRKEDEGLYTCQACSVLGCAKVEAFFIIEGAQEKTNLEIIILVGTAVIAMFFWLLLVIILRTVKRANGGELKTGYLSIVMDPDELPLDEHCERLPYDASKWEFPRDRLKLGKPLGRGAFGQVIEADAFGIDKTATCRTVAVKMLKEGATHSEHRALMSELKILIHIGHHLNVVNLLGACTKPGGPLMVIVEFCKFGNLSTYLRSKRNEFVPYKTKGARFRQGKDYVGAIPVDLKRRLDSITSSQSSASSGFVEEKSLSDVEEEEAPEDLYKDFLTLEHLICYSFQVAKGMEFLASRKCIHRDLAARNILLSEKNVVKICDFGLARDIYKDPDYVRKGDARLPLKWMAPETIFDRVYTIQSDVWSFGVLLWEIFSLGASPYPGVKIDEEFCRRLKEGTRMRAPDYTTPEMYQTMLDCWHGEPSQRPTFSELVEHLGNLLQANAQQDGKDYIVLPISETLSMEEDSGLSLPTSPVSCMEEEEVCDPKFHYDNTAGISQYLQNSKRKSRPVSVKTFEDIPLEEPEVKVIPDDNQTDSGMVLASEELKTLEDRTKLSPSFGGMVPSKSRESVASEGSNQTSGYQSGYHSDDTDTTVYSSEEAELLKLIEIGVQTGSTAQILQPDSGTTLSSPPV
Sequence of cSRC(h) (P12931 whole entry): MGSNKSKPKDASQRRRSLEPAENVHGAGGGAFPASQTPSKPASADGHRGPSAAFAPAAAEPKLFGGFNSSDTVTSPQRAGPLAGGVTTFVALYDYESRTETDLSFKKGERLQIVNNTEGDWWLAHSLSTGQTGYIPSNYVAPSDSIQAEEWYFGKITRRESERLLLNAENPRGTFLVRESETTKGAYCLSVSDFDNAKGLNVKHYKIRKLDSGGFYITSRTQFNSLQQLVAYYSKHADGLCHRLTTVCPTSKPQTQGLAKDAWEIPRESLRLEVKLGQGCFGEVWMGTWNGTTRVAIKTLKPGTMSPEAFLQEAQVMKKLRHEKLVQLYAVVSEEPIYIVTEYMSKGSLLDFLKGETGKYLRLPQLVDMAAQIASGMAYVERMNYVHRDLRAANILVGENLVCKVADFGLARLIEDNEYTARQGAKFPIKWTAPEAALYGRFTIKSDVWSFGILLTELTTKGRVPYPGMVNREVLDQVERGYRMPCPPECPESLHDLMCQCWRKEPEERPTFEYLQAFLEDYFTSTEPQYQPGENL
Sequence of Ret(h) (P07949 29-1114): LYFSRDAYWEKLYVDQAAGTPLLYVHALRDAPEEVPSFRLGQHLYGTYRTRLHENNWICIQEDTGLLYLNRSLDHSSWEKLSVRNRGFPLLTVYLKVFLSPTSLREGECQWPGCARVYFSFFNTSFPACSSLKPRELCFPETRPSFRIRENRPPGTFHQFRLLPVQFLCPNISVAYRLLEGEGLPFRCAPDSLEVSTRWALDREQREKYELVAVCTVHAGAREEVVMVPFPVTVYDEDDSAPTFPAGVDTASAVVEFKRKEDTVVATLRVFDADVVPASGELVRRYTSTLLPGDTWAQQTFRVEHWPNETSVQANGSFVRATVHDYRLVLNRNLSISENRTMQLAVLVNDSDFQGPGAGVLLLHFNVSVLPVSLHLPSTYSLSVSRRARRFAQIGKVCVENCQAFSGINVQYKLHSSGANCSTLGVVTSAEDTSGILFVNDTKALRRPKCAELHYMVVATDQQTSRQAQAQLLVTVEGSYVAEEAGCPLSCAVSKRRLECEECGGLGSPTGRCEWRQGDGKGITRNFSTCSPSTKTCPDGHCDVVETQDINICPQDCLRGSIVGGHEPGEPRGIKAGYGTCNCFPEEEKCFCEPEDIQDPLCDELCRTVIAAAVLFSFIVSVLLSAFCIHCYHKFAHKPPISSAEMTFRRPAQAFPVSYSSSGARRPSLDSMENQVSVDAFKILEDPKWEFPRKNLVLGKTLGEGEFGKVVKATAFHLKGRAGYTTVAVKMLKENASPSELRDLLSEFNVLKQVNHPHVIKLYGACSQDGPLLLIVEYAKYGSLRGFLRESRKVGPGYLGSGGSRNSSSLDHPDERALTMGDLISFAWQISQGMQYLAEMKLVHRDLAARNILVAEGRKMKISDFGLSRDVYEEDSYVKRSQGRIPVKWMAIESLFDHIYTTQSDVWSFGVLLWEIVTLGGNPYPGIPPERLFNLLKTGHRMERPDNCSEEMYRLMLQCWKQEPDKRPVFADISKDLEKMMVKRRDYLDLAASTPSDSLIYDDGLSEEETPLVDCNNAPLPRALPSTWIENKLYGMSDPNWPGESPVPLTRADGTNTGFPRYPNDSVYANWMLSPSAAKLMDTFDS

| Structure (SMILES) | inhibition at 1 µM [1] [%] | inhibition at 1 µM [2] [%] | inhibition at 1 µM [3] [%] | inhibition at 1 µM [4] [%] | inhibition at 1 µM [5] [%] | inhibition at 1 µM [6] [%] |
| --- | --- | --- | --- | --- | --- | --- |
| Cc1cc2c(F)c(Oc3nc(Nc4cc(C5CC5)[nH]n4)cc(N4CCC(N(C)C)C4)n3)ccc2[nH]1 (stereo not drawn) [Compound 17] | 100 | 100 | 98 | 98 | 93 | 108 |
| Cc1cc2c(F)c(Oc3nc(Nc4cc(C5CC5)[nH]n4)cc(N4CC(O)C4)n3)ccc2[nH]1 [Compound 15] | 100 | 101 | 99 | 101 | 91 | 108 |
| CCC1CN(c2cc(Nc3cc(C4CC4)[nH]n3)nc(Oc3ccc4[nH]c(C)cc4c3F)n2)CCN1 (stereo not drawn) [Compound 41] | 99 | 87 | 97 | 101 | 94 | 108 |
| C/C=C/c1cc(Nc2cc(N3CCN(C)CC3)nc(Oc3ccc4c(cc(C)n4C)c3F)n2)n[nH]1 [Compound 120] | 101 | 101 | 104 | 101 | 91 | 115 |
| Cc1cc2c(F)c(Oc3nc(Nc4cc(C5CC5)[nH]n4)cc(N4C[C@@H](C)N[C@@H](C)C4)n3)ccc2[nH]1 [Compound 20] | 100 | 99 | 99 | 100 | 93 | 107 |
| Cc1cc2c(F)c(Oc3nc(Nc4cc(C5CC5)[nH]n4)cc(N4CCOCC4)n3)cc(F)c2[nH]1 [Compound 84] | 100 | 98 | 100 | 100 | 93 | 103 |
| Cc1cc2c(F)c(Oc3nc(Nc4cc(C5CC5)[nH]n4)cc(N4CCC(O)CC4)n3)ccc2[nH]1 [Compound 21] | 101 | 100 | 98 | 100 | 87 | 107 |
| C/C=C/c1cc(Nc2cc(N3CCN(CCF)CC3)nc(Oc3ccc4[nH]c(C)cc4c3F)n2)n[nH]1 [Compound 74] | 100 | 99 | 100 | 102 | 96 | 111 |
| Cc1cc2c(F)c(Oc3nc(Nc4cc(C5CC5)[nH]n4)cc(N4CCOCC4)n3)ccc2n1C [Compound 123] | 101 | 100 | 104 | 102 | 88 | 114 |
| C/C=C/c1cc(Nc2cc(N3CCOCC3)nc(Oc3ccc4[nH]c(C)cc4c3F)n2)n[nH]1 [Compound 67] | 100 | 99 | 99 | 100 | 91 | 112 |
| C/C=C/c1cc(Nc2cc(N3CCN(S(C)(=O)=O)CC3)nc(Oc3ccc4[nH]c(C)cc4c3F)n2)n[nH]1 [Compound 55] | 99 | 101 | 101 | 101 | 96 | 110 |
| C/C=C/c1cc(Nc2cc(N3CCC(N(CC)CC)C3)nc(Oc3ccc4[nH]c(C)cc4c3F)n2)n[nH]1 (stereo not drawn) [Compound 62] | 99 | 102 | 101 | 102 | 96 | 111 |
| Cc1cc2c(F)c(Oc3nc(Nc4cc(C5CC5)[nH]n4)cc(N4CCOCC4)n3)ccc2[nH]1 [Compound 13] | 101 | 100 | 100 | 100 | 96 | 112 |
| COCCN1CCN(c2cc(Nc3cc(C4CC4)[nH]n3)nc(Oc3ccc4[nH]c(C)cc4c3F)n2)CC1 [Compound 28] | 100 | 101 | 96 | 101 | 89 | 108 |

Further lines, results first:

| inhibition at 1 µM [1] [%] | inhibition at 1 µM [2] [%] | inhibition at 1 µM [3] [%] | inhibition at 1 µM [4] [%] | inhibition at 1 µM [5] [%] | inhibition at 1 µM [6] [%] | Structure (SMILES) |
| --- | --- | --- | --- | --- | --- | --- |
| 100 | 100 | 100 | 101 | 96 | 110 | C/C=C/c1cc(Nc2cc(N3CCC(O)CC3)nc(Oc3cc(F)c4[nH]c(C)cc4c3F)n2)n[nH]1 [Compound 95] |
| 100 | 98 | 100 | 102 | 96 | 111 | C/C=C/c1cc(Nc2cc(N3CCN(S(C)(=O)=O)CC3)nc(Oc3cc(F)c4[nH]c(C)cc4c3F)n2)n[nH]1 [Compound 98] |
| 99 | 97 | 98 | 98 | 95 | 109 | Cc1cc(Nc2cc(N3CCNCC3)nc(Oc3cc(F)c4[nH]c(C)cc4c3F)n2)n[nH]1 [Compound 106] |
| 99 | 90 | 101 | 102 | 96 | 112 | C/C=C/c1cc(Nc2cc(N3CCC(OC)CC3)nc(Oc3ccc4[nH]c(C)cc4c3F)n2)n[nH]1 [Compound 58] |
| 99 | 98 | 101 | 102 | 95 | 110 | C/C=C/c1cc(Nc2cc(N3CCC(OC)CC3)nc(Oc3cc(F)c4[nH]c(C)cc4c3F)n2)n[nH]1 [Compound 96] |
| 100 | 100 | 100 | 102 | 96 | 111 | C/C=C/c1cc(Nc2cc(N3CCC(O)C3)nc(Oc3cc(F)c4[nH]c(C)cc4c3F)n2)n[nH]1 (stereo not drawn) [Compound 92] |
